Data published in US20240042424A1, “CITY POLLUTION ENVIRONMENT SIMULATION APPARATUS” (BASF SE, priority 2017, published 2024).

Columns and labels:
Type in all cases: physicochemical
[1] = Sebum oxidation products by GC/MS after exposure in pollution test chamber (dry film method); settings: for change of sebum component in GC/MS chromatogram: upon UVA exposure
Description: (§1) A) Stock solutions and preparation: • Stock solution squalene: 1 g of squalene was dissolved in 100 ml ethanol solvent • Stock solution sebum: 1 g of synthetic sebum (e.g. Synthetic Sebum 09D, available from WFK Testgewebe GmbH) was dissolved in 100 ml ethanol solvent using a water bath 15 minutes under 40° C. heat 1 ml of the respective stock solution was added at the center of large petri dishes (100 mm diameter×17 mm height) using an automatic pipette. After evaporating the ethanol solvent in a high ventilated fume hood for 10 mins, the petri dishes were coated with one uniform layer of squalene, respectively sebum, evenly distributed at the bottom of the petri dish. In total 16 samples were prepared, 8 of each respective batch, meaning 8 with squalene coating (batch 1) and 8 with sebum coating (batch 2). The side walls of the test petri dish samples were wrapped with plastic band seals in order to get them vertically hooked in a position facing the UVA lamps located on sides in the pollution test chamber. Four coated petri dishes, two with squalene and two with sebum, were stored in a fridge at 4° C. for control purposes, due to the autoxidation of squalene.
(§2) For each batch, 2 samples (in total 4 samples per mode) were respectively exposed to the 3 different pollution modes (i to iii): • i. During the “UVA only” (“uv”) mode, the samples were exposed to continuous 340 nm UV irradiation of the 8 UVA lamps for 6 hours. • ii. […]
(§3) 3.3.1 Squalene and Sebum oxidation products quantification with GC/MS • Equipment: Agilent 7890B/5977A GC-MS system • Dissolution solvent: Ethanol • column: DB-1MS • Flow Rate: 2 ml/min • Column Temperature: 40° C. […] Malondialdehyde (MDA) Quantification with Spectrophotometer (MDA-TBA Detection) • UV-vis scan between 200 and 800 nm, • Colorimetry: UV detection for MDA-TBA complex at 532 nm • Standard curve preparation: As precursor of MDA, 1,1,3,3-tetraethoxypropane (TEP) was used. […]

[2] = Squalene oxidation products by GC/MS after exposure in pollution test chamber (dry film method); settings: solvent ethanol
Description: as §1, §2, §3

[3] = MDA quantification/TBA test for squalene samples after pollution exposure
Description: as §1, §2, §3

SMILES	change of sebum component in GC/MS chromatogram [1]	squalene oxidization products (GC/MS) ([2]; UVA and exhaust gas (PUV-Mode), UVA 6 h, 3x30 mins diesel engine exhaust gas)	squalene oxidization products (GC/MS) ([2]; UVA irradiation only (UV-Mode), UVA for 6 h)	squalene oxidization products (GC/MS) ([2]; exhaust gas only (p-Mode), 3x30 mins diesel engine exhaust gas)	decrease of squalene from sebum (GC/MS) ([1]; 2 h UVA exposure and one-time 30 min exhaust gas, solvent Ethanol)	MDA percentage of initial mole of squalene ([3]; UVA irradiation only (uv mode))	MDA percentage of initial mole of squalene ([3]; combined exhaust gas and UV irradiation (puv mode))	MDA percentage of initial mole of squalene ([3]; exhaust gas only (p mode))
CC(C)CCC[C@@H](C)[C@H]1CC[C@H]2[C@@H]3CC=C4C[C@@H](O)CC[C@]4(C)[C@H]3CC[C@]12C [cholesterol]	increase							
CCCCCCCCCCCCCCCC(=O)O [palmitic acid]	increase							
CC(C)=CCC/C(C)=C/CC/C(C)=C/CC/C=C(\C)CC/C=C(\C)CCC=C(C)C [squalene]		a mix of pollution-induced squalene isomers (SQ isomers) as well as irradiation-induced oxidation products (SQOPs)	highest content of oxidation products	squalene isomers (SQ isomers)	93%	14.0%	13.6%	13.5%
